Source: ChEMBL document CHEMBL3611972, “Leishmanicidal, antiproteolytic, and mutagenic evaluation of alkyltriazoles and alkylphosphocholines” (Eur J Med Chem, 2015)

How the values were obtained:
Salmonella typhimurium [1] = assay: Mutagenicity in Salmonella typhimurium TA98 assessed as mutagenicity index at 616.38 uM/plate incubated for 90 mins at 37 degC in absence of liver S9 fractions by Ames test relative to control; type: toxicity, organism-based; conditions: salmonella enterica subsp. enterica serovar typhimurium, 1.5 h
Salmonella typhimurium [2] = assay: Mutagenicity in Salmonella typhimurium TA102 assessed as mutagenicity index at 313.73 uM/plate incubated for 90 mins at 37 degC in presence of liver S9 fractions by Ames test relative to control; type: toxicity, organism-based; conditions: salmonella enterica subsp. enterica serovar typhimurium, s9, 1.5 h
Leishmania amazonensis [3] = assay: Leishmanicidal activity against Leishmania amazonensis MHOM/BR/71973/M2269 amastigotes infected in mouse peritoneal macrophages assessed as reduction in surviving parasites incubated for 72 hrs by Giemsa staining based optical light microscopy; type: functional, organism-based; conditions: MHOM/BR/71973/M2269, 72 h
Salmonella typhimurium [4] = assay: Mutagenicity in Salmonella typhimurium TA98 assessed as mutagenicity index at 1185.19 uM/plate incubated for 90 mins at 37 degC in presence of liver S9 fractions by Ames test relative to control; type: toxicity, organism-based; conditions: salmonella enterica subsp. enterica serovar typhimurium, s9, 1.5 h
Leishmania amazonensis [5] = assay: microbe, parasite or virus in culture; type: functional, organism-based; conditions: MHOM/BR/71973/M2269, 72 h
Description: Leishmanicidal activity against Leishmania amazonensis MHOM/BR/71973/M2269 promastigotes assessed as reduction in surviving parasites incubated for 72 hrs by Neubauer's chamber based cell counting method

Salmonella typhimurium [6] = assay: Mutagenicity in Salmonella typhimurium TA98 assessed as mutagenicity index at 313.73 uM/plate incubated for 90 mins at 37 degC in presence of liver S9 fractions by Ames test relative to control; type: toxicity, organism-based; conditions: salmonella enterica subsp. enterica serovar typhimurium, s9, 1.5 h
[7] = Inhibition of Leishmania mexicana cysteine protease r-CPB2.8 using Z-FR-AMC fluorogenic substrate by spectrofluorometry
Salmonella typhimurium [8] = assay: Mutagenicity in Salmonella typhimurium TA97a assessed as mutagenicity index at 616.38 uM/plate incubated for 90 mins at 37 degC in absence of liver S9 fractions by Ames test relative to control; type: toxicity, organism-based; conditions: salmonella enterica subsp. enterica serovar typhimurium, 1.5 h
Salmonella typhimurium [9] = assay: Mutagenicity in Salmonella typhimurium TA100 assessed as mutagenicity index at 905.66 uM/plate incubated for 90 mins at 37 degC in presence of liver S9 fractions by Ames test relative to control; type: toxicity, organism-based; conditions: salmonella enterica subsp. enterica serovar typhimurium, s9, 1.5 h
[10] = Cytotoxicity against mouse peritoneal macrophages assessed as reduction in cell viability incubated for 72 hrs by MTT assay; type: cell-based, Peritoneal macrophage cell
Salmonella typhimurium [11] = assay: Mutagenicity in Salmonella typhimurium TA98 assessed as mutagenicity index at 905.66 uM/plate incubated for 90 mins at 37 degC in absence of liver S9 fractions by Ames test relative to control; type: toxicity, organism-based; conditions: salmonella enterica subsp. enterica serovar typhimurium, 1.5 h
[12] = Selectivity index, ratio of CC50 for mouse peritoneal macrophages to IC50 for Leishmania amazonensis MHOM/BR/71973/M2269 amastigotes infected in mouse peritoneal macrophages; type: functional
Salmonella typhimurium [13] = assay: Mutagenicity in Salmonella typhimurium TA98 assessed as mutagenicity index at 905.66 uM/plate incubated for 90 mins at 37 degC in presence of liver S9 fractions by Ames test relative to control; type: toxicity, organism-based; conditions: salmonella enterica subsp. enterica serovar typhimurium, s9, 1.5 h
Salmonella typhimurium [14] = assay: Mutagenicity in Salmonella typhimurium TA102 assessed as mutagenicity index at 313.73 uM/plate incubated for 90 mins at 37 degC in absence of liver S9 fractions by Ames test relative to control; type: toxicity, organism-based; conditions: salmonella enterica subsp. enterica serovar typhimurium, 1.5 h
Salmonella typhimurium [15] = assay: Mutagenicity in Salmonella typhimurium TA98 assessed as mutagenicity index at 1185.19 uM/plate incubated for 90 mins at 37 degC in absence of liver S9 fractions by Ames test relative to control; type: toxicity, organism-based; conditions: salmonella enterica subsp. enterica serovar typhimurium, 1.5 h
Salmonella typhimurium [16] = assay: Mutagenicity in Salmonella typhimurium TA100 assessed as mutagenicity index at 1185.19 uM/plate incubated for 90 mins at 37 degC in absence of liver S9 fractions by Ames test relative to control; type: toxicity, organism-based; conditions: salmonella enterica subsp. enterica serovar typhimurium, 1.5 h
Salmonella typhimurium [17] = assay: Mutagenicity in Salmonella typhimurium TA97a assessed as mutagenicity index at 905.66 uM/plate incubated for 90 mins at 37 degC in absence of liver S9 fractions by Ames test relative to control; type: toxicity, organism-based; conditions: salmonella enterica subsp. enterica serovar typhimurium, 1.5 h
Salmonella typhimurium [18] = assay: Mutagenicity in Salmonella typhimurium TA97a assessed as mutagenicity index at 1454.55 uM/plate incubated for 90 mins at 37 degC in presence of liver S9 fractions by Ames test relative to control; type: toxicity, organism-based; conditions: salmonella enterica subsp. enterica serovar typhimurium, s9, 1.5 h
Salmonella typhimurium [19] = assay: Mutagenicity in Salmonella typhimurium TA102 assessed as mutagenicity index at 905.66 uM/plate incubated for 90 mins at 37 degC in absence of liver S9 fractions by Ames test relative to control; type: toxicity, organism-based; conditions: salmonella enterica subsp. enterica serovar typhimurium, 1.5 h
Salmonella typhimurium [20] = assay: Mutagenicity in Salmonella typhimurium TA100 assessed as mutagenicity index at 150.98 uM/plate incubated for 90 mins at 37 degC in presence of liver S9 fractions by Ames test relative to untreated control; type: toxicity, organism-based; conditions: salmonella enterica subsp. enterica serovar typhimurium, s9, 1.5 h
Salmonella typhimurium [21] = assay: Mutagenicity in Salmonella typhimurium TA98 assessed as mutagenicity index at 150.98 uM/plate incubated for 90 mins at 37 degC in presence of liver S9 fractions by Ames test relative to untreated control; type: toxicity, organism-based; conditions: salmonella enterica subsp. enterica serovar typhimurium, s9, 1.5 h
Salmonella typhimurium [22] = assay: Mutagenicity in Salmonella typhimurium TA97a assessed as mutagenicity index at 150.98 uM/plate incubated for 90 mins at 37 degC in presence of liver S9 fractions by Ames test relative to untreated control; type: toxicity, organism-based; conditions: salmonella enterica subsp. enterica serovar typhimurium, s9, 1.5 h
Salmonella typhimurium [23] = assay: Mutagenicity in Salmonella typhimurium TA100 assessed as mutagenicity index at 700.00 uM/plate incubated for 90 mins at 37 degC in presence of liver S9 fractions by Ames test relative to untreated control; type: toxicity, organism-based; conditions: salmonella enterica subsp. enterica serovar typhimurium, s9, 1.5 h
Salmonella typhimurium [24] = assay: Mutagenicity in Salmonella typhimurium TA102 assessed as mutagenicity index at 435.85 uM/plate incubated for 90 mins at 37 degC in presence of liver S9 fractions by Ames test relative to untreated control; type: toxicity, organism-based; conditions: salmonella enterica subsp. enterica serovar typhimurium, s9, 1.5 h
Salmonella typhimurium [25] = assay: Mutagenicity in Salmonella typhimurium TA97a assessed as mutagenicity index at 435.85 uM/plate incubated for 90 mins at 37 degC in presence of liver S9 fractions by Ames test relative to untreated control; type: toxicity, organism-based; conditions: salmonella enterica subsp. enterica serovar typhimurium, s9, 1.5 h
Salmonella typhimurium [26] = assay: Mutagenicity in Salmonella typhimurium TA97a assessed as mutagenicity index at 570.37 uM/plate incubated for 90 mins at 37 degC in presence of liver S9 fractions by Ames test relative to untreated control; type: toxicity, organism-based; conditions: salmonella enterica subsp. enterica serovar typhimurium, s9, 1.5 h
Salmonella typhimurium [27] = assay: Mutagenicity in Salmonella typhimurium TA102 assessed as mutagenicity index at 296.15 uM/plate incubated for 90 mins at 37 degC in presence of liver S9 fractions by Ames test relative to untreated control; type: toxicity, organism-based; conditions: salmonella enterica subsp. enterica serovar typhimurium, s9, 1.5 h
Salmonella typhimurium [28] = assay: Mutagenicity in Salmonella typhimurium TA100 assessed as mutagenicity index at 570.37 uM/plate incubated for 90 mins at 37 degC in absence of liver S9 fractions by Ames test relative to untreated control; type: toxicity, organism-based; conditions: salmonella enterica subsp. enterica serovar typhimurium, 1.5 h
Salmonella typhimurium [29] = assay: Mutagenicity in Salmonella typhimurium TA102 assessed as mutagenicity index at 570.37 uM/plate incubated for 90 mins at 37 degC in absence of liver S9 fractions by Ames test relative to untreated control; type: toxicity, organism-based; conditions: salmonella enterica subsp. enterica serovar typhimurium, 1.5 h
Salmonella typhimurium [30] = assay: Mutagenicity in Salmonella typhimurium TA102 assessed as mutagenicity index at 150.98 uM/plate incubated for 90 mins at 37 degC in presence of liver S9 fractions by Ames test relative to untreated control; type: toxicity, organism-based; conditions: salmonella enterica subsp. enterica serovar typhimurium, s9, 1.5 h
Salmonella typhimurium [31] = assay: Mutagenicity in Salmonella typhimurium TA98 assessed as mutagenicity index at 150.98 uM/plate incubated for 90 mins at 37 degC in absence of liver S9 fractions by Ames test relative to untreated control; type: toxicity, organism-based; conditions: salmonella enterica subsp. enterica serovar typhimurium, 1.5 h
Salmonella typhimurium [32] = assay: Mutagenicity in Salmonella typhimurium TA100 assessed as mutagenicity index at 296.15 uM/plate incubated for 90 mins at 37 degC in absence of liver S9 fractions by Ames test relative to untreated control; type: toxicity, organism-based; conditions: salmonella enterica subsp. enterica serovar typhimurium, 1.5 h

**Q.** Which Activity_index (Salmonella typhimurium [1]) does the source give for `CCOC(=O)c1cn(CCCCCCCCCOS(C)(=O)=O)nn1` here?
**A.** The Activity_index was 1.2.

**Q.** What about the Activity_index (Salmonella typhimurium [2]) of the same compound?
**A.** The Activity_index was 1.4.

**Q.** What about the IC50 (Leishmania amazonensis [3]) of the same compound?
**A.** The IC50 was 76.7 µM.

**Q.** What about the Activity_index (Salmonella typhimurium [4]) of the same compound?
**A.** Its Activity_index is 0.8.

**Q.** What about the IC50 (Leishmania amazonensis [5]) of the same compound?
**A.** Its IC50 is 37.2 µM.

**Q.** What about the Activity_index (Salmonella typhimurium [6]) of the same compound?
**A.** Its Activity_index is 1.

**Q.** And the IC50 [7]?
**A.** The IC50 was 0.857 µM.

**Q.** What about the Activity_index (Salmonella typhimurium [8]) of the same compound?
**A.** The Activity_index was 1.6.

**Q.** What about the Activity_index (Salmonella typhimurium [9]) of the same compound?
**A.** The Activity_index was 1.

**Q.** And the CC50 at 72 h [10]?
**A.** Its CC50 at 72 h is 983 µM.

**Q.** What about the Activity_index (Salmonella typhimurium [11]) of the same compound?
**A.** Its Activity_index is 1.2.

**Q.** And the “Ratio CC50/IC50” value [12]?
**A.** The value was 12.82.

**Q.** And the Activity_index (Salmonella typhimurium [13])?
**A.** The Activity_index was 1.

**Q.** What about the Activity_index (Salmonella typhimurium [14]) of the same compound?
**A.** The Activity_index was 1.2.

**Q.** What about the Activity_index (Salmonella typhimurium [15]) of the same compound?
**A.** Its Activity_index is 1.5.

**Q.** What about the Activity_index (Salmonella typhimurium [16]) of the same compound?
**A.** Its Activity_index is 1.3.

**Q.** What about the Activity_index (Salmonella typhimurium [17]) of the same compound?
**A.** Its Activity_index is 1.8.

**Q.** What about the Activity_index (Salmonella typhimurium [18]) of the same compound?
**A.** The Activity_index was 0.8.

**Q.** What about the Activity_index (Salmonella typhimurium [19]) of the same compound?
**A.** Its Activity_index is 0.9.

**Q.** Which Activity_index (Salmonella typhimurium [20]) does the source give for `CS(=O)(=O)OCCCCCCCCCCCCn1cc(CCCO)nn1` here?
**A.** The Activity_index was 0.9.

**Q.** What about the IC50 (Leishmania amazonensis [3]) of the same compound?
**A.** The IC50 was 14.2 µM.

**Q.** And the Activity_index (Salmonella typhimurium [21])?
**A.** Its Activity_index is 1.1.

**Q.** And the Activity_index (Salmonella typhimurium [22])?
**A.** The Activity_index was 0.9.

**Q.** And the IC50 (Leishmania amazonensis [5])?
**A.** The IC50 was 28.5 µM.

**Q.** And the Activity_index (Salmonella typhimurium [23])?
**A.** Its Activity_index is 0.9.

**Q.** What about the Activity_index (Salmonella typhimurium [24]) of the same compound?
**A.** Its Activity_index is 1.1.

**Q.** And the Activity_index (Salmonella typhimurium [25])?
**A.** Its Activity_index is 0.9.

**Q.** And the IC50 [7]?
**A.** Its IC50 is 8.18 µM.

**Q.** What about the Activity_index (Salmonella typhimurium [26]) of the same compound?
**A.** Its Activity_index is 1.

**Q.** What about the Activity_index (Salmonella typhimurium [27]) of the same compound?
**A.** The Activity_index was 1.3.

**Q.** And the Activity_index (Salmonella typhimurium [28])?
**A.** Its Activity_index is 1.3.

**Q.** And the CC50 at 72 h [10]?
**A.** The CC50 at 72 h was 163 µM.

**Q.** And the Activity_index (Salmonella typhimurium [29])?
**A.** The Activity_index was 1.

**Q.** And the “Ratio CC50/IC50” value [12]?
**A.** The value was 11.47.

**Q.** And the Activity_index (Salmonella typhimurium [30])?
**A.** The Activity_index was 1.1.

**Q.** And the Activity_index (Salmonella typhimurium [31])?
**A.** The Activity_index was 1.

**Q.** What about the Activity_index (Salmonella typhimurium [32]) of the same compound?
**A.** Its Activity_index is 1.3.
